Laboratory results reported in US20090123564A1, “NOVEL COMPOSITIONS FOR HAIR DISORDERS AND PROCESS OF PREPARATION THEREOF” (priority 2006, published 2009).

Assays:
[1] = system: leukenia cells P-388; conditions: P-388 cells; cited from earlier work
[2] = system: leukenia cells L-1210; conditions: L-1210 cells; cited from earlier work
[3] = system: human carcinoma nasopharynx cells; conditions: cited from earlier work
[4] = system: androgen induced alopecia in hamsters; test: Comparative efficacy of Vernonia anthelmintica extract against finasteride in androgen induced alopecia; type: in vivo; conditions: for Mean ± SEM hair growth on a 0-3 scale: hamsters given testosterone i.m., treatments twice daily for 21 days, control 2.75 ± 0.171
Procedure: Hamsters were divided into five different groups; one normal control group, three drug treated groups and one testosterone control group. On day 0 of the study, the fur over and around the flank organs was shaved with electric clippers. 95% alcohol (100 μl/site) was applied topically, twice daily to Testosterone Control and Normal control groups for 21 days. Saw Palmetto cream was applied topically (100 mg/site) twice daily for 21 days. 100 μl/site of 2% solution of Vernonia anthelmintica extract was applied topically, twice daily for 21 days. Finasteride (0.6 mg/kg) was administered orally twice daily for 21 days. Different groups except normal control group was administered testosterone (25 mg, i.m. in divided doses of 33.3 μl on day 0, 7, and 14) 1-hour post drug administration. At day 7, the fur around the flank organs was re-clipped. The amount of hair growth on the area surrounding the flank organs was visually graded at weekly intervals on a 0-3 scale (0=bald skin, 1=slight hair growth, 2=moderate hair growth and 3=full hair growth). The result is presented in table-2 and shown graphically in FIG. 3.

[5] = system: dihydrotestosterone (DHT); conditions: cited from earlier work
[6] = system: testosterone-induced alopecia in hamsters; test: Vernonia anthelmintica extract against testosterone-induced alopecia in hamsters; type: in vivo; conditions: day 22; visual grading on 0-3 scale (0=bald skin, 3=full hair growth); control=2.0
Procedure: The efficacy of an extract of Vernonia anthelmintica (prepared according to Example-1 as stated hereinafter) against testosterone-induced alopecia in hamsters was studied. Male hamsters (n=6/group) weighing 90-120 g were procured from central animal house of Panacea Biotec Ltd. for study. Drugs used to induce alopecia was Testosterone i.m. depot injection (Testoviron); B.No. K1007, German Remedies Limited; each ml of which contains Testosterone Enanthate USP . . . 250 mg and Arachis oil IP . . . qs. The route of administration of the cream compositions was topical and the duration of study was 22 days. Hamsters were divided into two different groups; one Vernonia anthelmintica extract treated groups and another testosterone control group. On day 0 of study, the fur over and around the flank organs would be shaved with electric clippers.
Testosterone was administered intramuscularly in divided doses, whereas Vernonia anthelmintica extract was applied topically twice daily for 21 days. On day 7, the fur around the flank organs was re-clipped. The amount of hair growth on the area surrounding the flank organs was visually graded on day 22 on a 0-3 scale (0=bald skin, 1=slight hair growth, 2=moderate hair growth and 3=full hair growth). Photographs of flank organ were taken on day 0 and 22. […]

[7] = system: testosterone-induced alopecia in hamsters; test: Strength of Vernonia creams in testosterone-induced alopecia in hamsters; type: in vivo; conditions: day 22; 0-3 scale; creams 100 mg topical bid for 21 days; normal control=3
Procedure: Male hamsters (n=6/group) weighing 80-90 g procured from Central animal house of Panacea Biotec Ltd. were used. Drugs used to induce alopecia was Testosterone i.m. depot injection (Testoviron); B.No. K1007, German Remedies Limited; each ml of which contains Testosterone Enanthate USP . . . 250 mg and Arachis oil IP . . . qs. Four batches of Vernonia creams of different strengths were used for conducting the study namely B.No. 0629/010A (2% w/w), B.No. 0629/010C (0.2% w/w), B.No. 0629/014A (2% w/w) and B.No. 0629/014C (0.2% w/w) prepared according to Example-3 and Example 4 as stated hereinafter. The route of administration of the cream compositions was topical and the duration of study was 22 days. The fur over and around the flank organs of hamsters was shaved with electric clippers. Hamsters were divided into four different groups and allocated different treatments. The summary of different treatments is represented in Table-3.
Testosterone was administered intramuscularly in divided doses, whereas Vernonia cream(s) (100 mg) was applied topically twice daily. All the treatments were given for 21 days. On day 7, the fur around the flank organs was re-clipped. […] The hair growth presented as mean was analyzed by one-way ANOVA followed by Student-Newman-Keuls multiple-range test. […]

[8] = system: testosterone-induced alopecia in hamsters; test: Dose-response of Vernonia extract gel versus Vernonia freeze dried juice gel in testosterone-challenged hamsters; type: in vivo; conditions: day 22; 0-3 scale; normal control=1.31±0.18
Procedure: A further study was performed to study the dose-response of Vernonia extract gel and to compare its hair growth promoting effect against Vernonia freeze dried juice gel. The Vernonia extract gel was prepared by making an organic solvent extract of Vernonia and formulating it into a gel composition. The Vernonia freeze dried juice gel was prepared by expressing the juice from fresh leaves and flowering tops of Vernonia followed by freeze drying and formulating it into a gel composition. Male hamsters (n=6-8/group) weighing 80-90 g procured from the Central animal house of Panacea Biotec Ltd. were used. Drugs used to induce alopecia was Testosterone i.m. depot injection (Testoviron); B.No. K1007, German Remedies Limited; each ml of which contains Testosterone Enanthate USP . . . 250 mg and Arachis oil IP . . . qs. The following were used for conducting the study namely Vernonia extract gels B.No. 0629/030A (0.5% w/w), B.No. 0629/030B (1% w/w) and B.No. 0629/030C (2% w/w); and Vernonia freeze dried juice gels B.No. 0629/026A (1.25% w/w) and B.No. 0629/026B (2.5% w/w) (prepared according to Example-5 and Example-6 as stated hereinafter). […]
Testosterone was administered intramuscularly in divided doses, whereas Vernonia cream (s) (100 mg) was applied topically twice daily. […] The hair growth presented as mean was analyzed by one-way ANOVA followed by Student-Newman-Keuls multiple-range test. […]

In the case of vernolide, the “IC50, antitumoral effects” value [1] is given as 0.13 µg/mL, the “IC50, antitumoral effects” value [2] is given as 0.11 µg/mL and the “IC50, cytotoxic effects” value [3] is given as 2.0 µg/mL.
In the case of `CC(C)(C)NC(=O)[C@H]1CC[C@H]2[C@@H]3CC[C@H]4NC(=O)C=C[C@]4(C)[C@H]3CC[C@]12C` [Finasteride], the “Reversal of testosterone induced-hair loss” value ([4]; day 22) is listed as “significantly reversed testosterone induced-hair loss”, the “Mean ± SEM hair growth on a 0-3 scale” value [4] is listed as 2.20 ± 0.339 and the “Decrease of DHT concentration in the scalp” value ([5]; scalp) is listed as no more than 60%. The “Decrease of DHT concentration in the serum” value ([5]; serum) was “up to 70%”.
In the case of vernodaline, the “IC50, antitumoral effects” value [1] is given as 0.11 µg/mL and the “IC50, antitumoral effects” value [2] is given as 0.17 µg/mL.
With `CCCCCCC(=O)O[C@H]1CC[C@H]2[C@@H]3CCC4=CC(=O)CC[C@]4(C)[C@H]3CC[C@]12C` [Testosterone, Testosterone Enanthate] the Hair growth score [6] was 0.58±0.15, the “Mean ± SEM hair growth on a 0-3 scale” value [4] was 1.33 ± 0.211 and the Hair growth score [7] was 0.13. It also gave a Hair growth score [8] of 0.
